This note sets out measurements from ChEMBL document CHEMBL3414508, “A few atoms make the difference: synthetic, CD, NMR and computational studies on antiviral and antibacterial activities of glycopeptide antibiotic aglycon derivatives” (Eur J Med Chem, 2015).

Type in all cases: functional
One assay has as its system Bacillus spizizenii. The experiment in a line: Antibacterial activity against Bacillus subtilis ATCC 6633 by broth microdilution method. In general terms: Dilution methods test growth across graded concentrations, often in twofold steps.
Assay [1] deals with Staphylococcus aureus. The experiment in a line: Antibacterial activity against methicillin-resistant Staphylococcus aureus ATCC 33591 by broth microdilution method.
The subject of assay [2] is Staphylococcus epidermidis. The experiment in a line: Antibacterial activity against Staphylococcus epidermidis expressing mecA by broth microdilution method.
Assay [3] concerns Staphylococcus aureus. The experiment in a line: Antibacterial activity against methicillin-sensitive Staphylococcus aureus ATCC 29213 by broth microdilution method.
The test system of assay [4] is Staphylococcus epidermidis. The experiment in a line: Antibacterial activity against biofilm producing Staphylococcus epidermidis ATCC 35984 by broth microdilution method.
Assay [5] deals with Enterococcus faecalis. The experiment in a line: Antibacterial activity against Enterococcus faecalis ATCC 29212 by broth microdilution method.
Assay [6] deals with Enterococcus faecalis. The experiment in a line: Antibacterial activity against VanB+ Enterococcus faecalis ATCC 51299 by broth microdilution method.
Assay [7] deals with Enterococcus faecalis. The experiment in a line: Antibacterial activity against VanA+ Enterococcus faecalis 15376 by broth microdilution method.

Converted amounts (≈) assume the structure as drawn.

Turning to `COC(=O)[C@H]1NC(=O)[C@H]2NC(=O)[C@H](NC(=O)[C@@H]3NC(=O)[C@H]4NC(=O)[C@H](NC(=O)[C@H](Nc5c(NCc6ccc(-c7ccccc7)cc6)c(=O)c5=O)c5ccc(O)c(c5)Oc5cc4cc(O)c5C)[C@H](O)c4ccc(cc4)Oc4cc3cc(c4O)Oc3ccc(cc3)[C@H]2O)c2ccc(O)c(c2)-c2c(O)cc(O)cc21`, the MIC came to 2 µg/mL (≈ 1.39 µM) against Bacillus spizizenii; 8 µg/mL (≈ 5.57 µM) in the assay with Staphylococcus aureus [1]; 2 µg/mL (≈ 1.39 µM) in assay [2]; 1 µg/mL (≈ 0.697 µM) in the assay with Staphylococcus aureus [3]; 2 µg/mL (≈ 1.39 µM) in assay [4]; 1 µg/mL (≈ 0.697 µM) in the assay with Enterococcus faecalis [5]. The MIC against Enterococcus faecalis [6] came to 8 µg/mL (≈ 5.57 µM).
Regarding `CC(=O)N[C@H]1[C@H](O[C@@H]2c3ccc(c(Cl)c3)Oc3cc4cc(c3O)Oc3ccc(cc3Cl)C[C@H]3NC(=O)[C@H](Nc5c(NCc6ccc(-c7ccccc7)cc6)c(=O)c5=O)c5ccc(O)c(c5)Oc5cc(O)cc(c5)[C@H](NC3=O)C(=O)N[C@H]4C(=O)N[C@H]3C(=O)N[C@@H]2C(=O)N[C@H](C(=O)O)c2cc(O)cc(O)c2-c2cc3ccc2O)O[C@H](CO)[C@@H](O)[C@@H]1O`, the MIC against Bacillus spizizenii was 4 µg/mL (≈ 2.4 µM); in the assay with Staphylococcus aureus [1] it was 4 µg/mL (≈ 2.4 µM); in assay [2], 1 µg/mL (≈ 0.601 µM); against Staphylococcus aureus [3], 1 µg/mL (≈ 0.601 µM); in assay [4], 1 µg/mL (≈ 0.601 µM); against Enterococcus faecalis [5], 4 µg/mL (≈ 2.4 µM). Further, the MIC against Enterococcus faecalis [6] came to 8 µg/mL (≈ 4.81 µM); against Enterococcus faecalis [7], 256 µg/mL (≈ 154 µM).
For `COC(=O)[C@H]1NC(=O)[C@H]2NC(=O)[C@H](NC(=O)[C@@H]3NC(=O)[C@H]4NC(=O)[C@@H](Cc5ccc(c(Cl)c5)Oc5cc3cc(c5O)Oc3ccc(cc3Cl)[C@H]2O[C@@H]2O[C@H](CO)[C@@H](O)[C@H](O)[C@H]2NC(C)=O)NC(=O)[C@H](N)c2ccc(O)c(c2)Oc2cc(O)cc4c2)c2ccc(O)c(c2)-c2c(O)cc(O)cc21`, the MIC against Bacillus spizizenii was 0.5 µg/mL (≈ 0.353 µM); against Staphylococcus aureus [1], 1 µg/mL (≈ 0.706 µM); in assay [2] it was 0.5 µg/mL (≈ 0.353 µM); against Staphylococcus aureus [3], 0.5 µg/mL (≈ 0.353 µM); in assay [4], 0.5 µg/mL (≈ 0.353 µM); against Enterococcus faecalis [5], 2 µg/mL (≈ 1.41 µM). Also, the MIC in the assay with Enterococcus faecalis [6] stood at 1 µg/mL (≈ 0.706 µM); with Enterococcus faecalis [7] it was 0.5 µg/mL (≈ 0.353 µM).
Take `COC(=O)[C@H]1NC(=O)[C@H]2NC(=O)[C@H](NC(=O)[C@@H]3NC(=O)[C@H]4NC(=O)[C@@H](Cc5ccc(c(Cl)c5)Oc5cc3cc(c5O)Oc3ccc(cc3Cl)[C@H]2O[C@@H]2O[C@H](CO)[C@@H](O)[C@H](O)[C@H]2NC(C)=O)NC(=O)[C@H](Nc2c(OC)c(=O)c2=O)c2ccc(O)c(c2)Oc2cc(O)cc4c2)c2ccc(O)c(c2)-c2c(O)cc(O)cc21`: the MIC came out at 8 µg/mL (≈ 5.24 µM) in the assay on Bacillus spizizenii; 8 µg/mL (≈ 5.24 µM) against Staphylococcus aureus [1]; 8 µg/mL (≈ 5.24 µM) in assay [2]; 2 µg/mL (≈ 1.31 µM) against Staphylococcus aureus [3]; 4 µg/mL (≈ 2.62 µM) in assay [4]; 2 µg/mL (≈ 1.31 µM) against Enterococcus faecalis [5]. Moreover, the MIC against Enterococcus faecalis [6] stood at 4 µg/mL (≈ 2.62 µM); in the assay on Enterococcus faecalis [7], 0.5 µg/mL (≈ 0.328 µM).
In the case of `COC(=O)[C@H]1NC(=O)[C@H]2NC(=O)[C@H](NC(=O)[C@@H]3NC(=O)[C@H]4NC(=O)[C@@H](Cc5ccc(c(Cl)c5)Oc5cc3cc(c5O)Oc3ccc(cc3Cl)[C@H]2O[C@@H]2O[C@H](CO)[C@@H](O)[C@H](O)[C@H]2NC(C)=O)NC(=O)[C@H](Nc2c(NCc3ccc(-c5ccccc5)cc3)c(=O)c2=O)c2ccc(O)c(c2)Oc2cc(O)cc4c2)c2ccc(O)c(c2)-c2c(O)cc(O)cc21`, the MIC amounted to 8 µg/mL (≈ 4.77 µM) against Bacillus spizizenii; 0.5 µg/mL (≈ 0.298 µM) in the assay on Staphylococcus aureus [1]; 0.5 µg/mL (≈ 0.298 µM) in assay [2]; 2 µg/mL (≈ 1.19 µM) in the assay on Staphylococcus aureus [3]; 0.5 µg/mL (≈ 0.298 µM) in assay [4]; 0.5 µg/mL (≈ 0.298 µM) in the assay on Enterococcus faecalis [5]. Besides, the MIC in the assay with Enterococcus faecalis [6] and with Enterococcus faecalis [7] was 0.5 µg/mL (≈ 0.298 µM) in each case.
On to `COc1c(N[C@H]2C(=O)N[C@@H]3Cc4ccc(c(Cl)c4)Oc4cc5cc(c4O)Oc4ccc(cc4Cl)[C@@H](O)[C@@H]4NC(=O)[C@H](NC(=O)[C@@H]5NC(=O)[C@@H](NC3=O)c3cc(O)cc(c3)Oc3cc2ccc3O)c2ccc(O)c(c2)-c2c(O)cc(O)cc2[C@@H](C(=O)O)NC4=O)c(=O)c1=O`, for which the MIC against Bacillus spizizenii worked out at 16 µg/mL (≈ 12.2 µM); against Staphylococcus aureus [1] it was 2 µg/mL (≈ 1.53 µM); in assay [2], 2 µg/mL (≈ 1.53 µM); in the assay on Staphylococcus aureus [3], 1 µg/mL (≈ 0.764 µM); in assay [4], 2 µg/mL (≈ 1.53 µM); with Enterococcus faecalis [5], 4 µg/mL (≈ 3.06 µM). Moreover, the figures for the MIC in the assay on Enterococcus faecalis [6] and in the assay with Enterococcus faecalis [7] were 8 µg/mL (≈ 6.11 µM) and 2 µg/mL (≈ 1.53 µM), respectively.
Take `O=C1N[C@H]2C(=O)N[C@H]3C(=O)N[C@H](C(=O)N[C@H](C(=O)O)c4cc(O)cc(O)c4-c4cc3ccc4O)[C@H](O)c3ccc(c(Cl)c3)Oc3cc2cc(c3O)Oc2ccc(cc2Cl)C[C@H]2NC(=O)[C@H](Nc3c(NCc4ccc(-c5ccccc5)cc4)c(=O)c3=O)c3ccc(O)c(c3)Oc3cc(O)cc(c3)[C@@H]1NC2=O`: the MIC in the assay with Bacillus spizizenii stood at 8 µg/mL (≈ 5.48 µM); in the assay with Staphylococcus aureus [1], 2 µg/mL (≈ 1.37 µM); in assay [2] it was 2 µg/mL (≈ 1.37 µM); in the assay with Staphylococcus aureus [3] it was 2 µg/mL (≈ 1.37 µM); in assay [4] it was 0.5 µg/mL (≈ 0.342 µM); against Enterococcus faecalis [5], 1 µg/mL (≈ 0.685 µM). Also, the MIC with Enterococcus faecalis [6] amounted to 8 µg/mL (≈ 5.48 µM); against Enterococcus faecalis [7] it was 1 µg/mL (≈ 0.685 µM).
As for `COC(=O)[C@H]1NC(=O)[C@H]2NC(=O)[C@H](NC(=O)[C@@H]3NC(=O)[C@H]4NC(=O)[C@@H](Cc5ccc(c(Cl)c5)Oc5cc3cc(c5O)Oc3ccc(cc3Cl)[C@H]2O)NC(=O)[C@H](Nc2c(NCc3ccc(-c5ccccc5)cc3)c(=O)c2=O)c2ccc(O)c(c2)Oc2cc(O)cc4c2)c2ccc(O)c(c2)-c2c(O)cc(O)cc21`, the MIC was found to be 256 µg/mL (≈ 174 µM) in the assay with Bacillus spizizenii; 256 µg/mL (≈ 174 µM) against Staphylococcus aureus [1]; 32 µg/mL (≈ 21.7 µM) in assay [2]; 128 µg/mL (≈ 86.8 µM) against Staphylococcus aureus [3]; 256 µg/mL (≈ 174 µM) in assay [4]; 64 µg/mL (≈ 43.4 µM) with Enterococcus faecalis [5]. The MIC against Enterococcus faecalis [6] turned out to be 256 µg/mL (≈ 174 µM); in the assay on Enterococcus faecalis [7] it was 128 µg/mL (≈ 86.8 µM).
In the case of `COC(=O)[C@H]1NC(=O)[C@H]2NC(=O)[C@H](NC(=O)[C@@H]3NC(=O)[C@H]4NC(=O)[C@@H](Cc5ccc(cc5)Oc5cc3cc(c5O)Oc3ccc(cc3)[C@H]2O)NC(=O)[C@H](Nc2c(NCc3ccc(-c5ccccc5)cc3)c(=O)c2=O)c2ccc(O)c(c2)Oc2cc(O)cc4c2)c2ccc(O)c(c2)-c2c(O)cc(O)cc21`, the MIC in the assay on Bacillus spizizenii was 16 µg/mL (≈ 11.4 µM); against Staphylococcus aureus [1], 32 µg/mL (≈ 22.8 µM); in assay [2], 8 µg/mL (≈ 5.69 µM); in the assay on Staphylococcus aureus [3], 8 µg/mL (≈ 5.69 µM); in assay [4], 32 µg/mL (≈ 22.8 µM); in the assay with Enterococcus faecalis [5] it was 4 µg/mL (≈ 2.85 µM). In addition, the MIC worked out at 4 µg/mL (≈ 2.85 µM) in the assay on Enterococcus faecalis [6] and 16 µg/mL (≈ 11.4 µM) in the assay with Enterococcus faecalis [7].
Regarding `Cc1c(O)cc2cc1Oc1cc(ccc1O)[C@@H](N)C(=O)N[C@H]1C(=O)N[C@@H]2C(=O)N[C@H]2C(=O)N[C@H]3C(=O)N[C@H](C(=O)N[C@@H](C(=O)O)c4cc(O)cc(O[C@H]5O[C@H](CO)[C@@H](O)[C@H](O)[C@@H]5O)c4-c4cc3ccc4O)[C@H](O[C@H]3C[C@@H](N)[C@@H](O)[C@H](C)O3)c3ccc(cc3)Oc3cc2cc(c3O[C@H]2O[C@@H](CO[C@H]3O[C@H](C)[C@@H](O)[C@H](O)[C@@H]3O)[C@H](O)[C@@H](O)[C@@H]2O[C@H]2O[C@H](CO)[C@@H](O)[C@H](O)[C@@H]2O[C@H]2O[C@H](CO)[C@@H](O)[C@@H]2O)Oc2ccc(cc2)[C@H]1O` [RISTOCETIN], the MIC with Bacillus spizizenii stood at 16 µg/mL (≈ 7.79 µM); against Staphylococcus aureus [1], 32 µg/mL (≈ 15.6 µM); in assay [2] it was 128 µg/mL (≈ 62.3 µM); with Staphylococcus aureus [3], 128 µg/mL (≈ 62.3 µM); in assay [4], 2 µg/mL (≈ 0.974 µM); with Enterococcus faecalis [5], 4 µg/mL (≈ 1.95 µM). Moreover, the values for the MIC in the assay on Enterococcus faecalis [6] and against Enterococcus faecalis [7] were 256 µg/mL (≈ 125 µM) and 16 µg/mL (≈ 7.79 µM), respectively.
